Measurements published in ChEMBL document CHEMBL5223095, “Structure activity relationship of N-1 substituted 1,5-naphthyrid-2-one analogs of oxabicyclooctane-linked novel bacterial topoisomerase inhibitors as broad-spectrum antibacterial agents (Part-9)” (Bioorg Med Chem Lett, 2022).
In brackets after ≈: the same amount, converted by molar mass.

What was measured:
Type in all cases: functional
Staphylococcus aureus = assay: Antibacterial activity against methicillin-resistant Staphylococcus aureus OITII-971 assessed as bacterial growth inhibition by CLSI protocol agar-based assay
Escherichia coli = assay: Antibacterial activity against Escherichia coli ATCC 25922 assessed as bacterial growth inhibition by CLSI protocol agar-based assay
Acinetobacter baumannii = assay: Antibacterial activity against Acinetobacter baumannii IID876 assessed as bacterial growth inhibition by CLSI protocol agar-based assay
Streptococcus pneumoniae = assay: Antibacterial activity against Streptococcus pneumoniae IID553 assessed as bacterial growth inhibition by CLSI protocol agar-based assay
Enterococcus faecium = assay: Antibacterial activity against Vanomycin-resistant Enterococcus faecium assessed as bacterial growth inhibition by CLSI protocol agar-based assay
Pseudomonas aeruginosa = assay: Antibacterial activity against Pseudomonas aeruginosa PAO1 assessed as bacterial growth inhibition by CLSI protocol agar-based assay

Row | SMILES | MIC (Staphylococcus aureus) [µg/mL] | MIC (Escherichia coli) [µg/mL] | MIC (Acinetobacter baumannii) [µg/mL] | MIC (Streptococcus pneumoniae) [µg/mL] | MIC (Enterococcus faecium) [µg/mL] | MIC (Pseudomonas aeruginosa) [µg/mL]
1 | COc1ccc2ncc(F)c(CCC34CCC(NCc5ccc6c(n5)NC(=O)CO6)(CC3)CO4)c2n1 | 0.016 (≈ 0.0324 µM) | 1 (≈ 2.03 µM) |  |  |  | 
2 | O=C1COc2ccc(CNC34CCC(C[C@]5(O)Cn6c(=O)ccc7ncc(F)c5c76)(CC3)OC4)nc2N1 | 0.25 (≈ 0.493 µM) | 4 (≈ 7.88 µM) |  |  |  | 
3 | O=c1ccc2ncc(F)c3c2n1C[C@@]3(O)CC12CCC(NCc3cc4c(cn3)OCCO4)(CC1)CO2 | 0.5 (≈ 1.01 µM) | 16 (≈ 32.4 µM) |  |  |  | 
4 | O=C1COc2ccc(CNC34CCC(CCc5c(F)cnc6ccc(=O)n(C/C=N/O)c56)(CC3)OC4)nc2N1 | 0.25 (≈ 0.466 µM) | 4 (≈ 7.45 µM) | 2 (≈ 3.73 µM) | 0.5 (≈ 0.932 µM) | 4 (≈ 7.45 µM) | 8 (≈ 14.9 µM)
5 | O=C(NC12CCC(CCc3c(F)cnc4ccc(=O)n(CCO)c34)(CC1)OC2)c1cc2c(cn1)OCCO2 | 1 (≈ 1.91 µM) | > 32 | 32 (≈ 61 µM) | 2 (≈ 3.81 µM) | 16 (≈ 30.5 µM) | > 32
6 | O=c1ccc2ncc(F)c(CCC34CCC(NCc5cnc(-c6cccnc6)s5)(CC3)CO4)c2n1CCO | > 16 | > 16 | > 16 | > 16 | > 16 | > 32
7 | O=C(O)Cn1c(=O)ccc2ncc(F)c(CCC34CCC(NCc5ccc6c(n5)NC(=O)CO6)(CC3)CO4)c21 | 16 (≈ 29.8 µM) | > 64 | > 64 | 64 (≈ 119 µM) | > 64 | > 64
8 | O=C1COc2ccc(C(=O)NC34CCC(CCc5c(F)cnc6ccc(=O)n(CCO)c56)(CC3)OC4)nc2N1 | 0.125 (≈ 0.233 µM) | 16 (≈ 29.8 µM) | 4 (≈ 7.44 µM) | 1 (≈ 1.86 µM) | 4 (≈ 7.44 µM) | 32 (≈ 59.5 µM)
9 | CCOC(=O)Cn1c(=O)ccc2ncc(F)c(CCC34CCC(NCc5ccc6c(n5)NC(=O)CO6)(CC3)CO4)c21 | 0.063 (≈ 0.111 µM) | 8 (≈ 14.1 µM) | 1 (≈ 1.77 µM) | 1 (≈ 1.77 µM) | 8 (≈ 14.1 µM) | 32 (≈ 56.6 µM)
10 | O=c1ccc2ncc(F)c(CCC34CCC(NCc5cc6c(cn5)OCCC6)(CC3)CO4)c2n1CCO | 0.063 (≈ 0.124 µM) | 8 (≈ 15.7 µM) | 1 (≈ 1.97 µM) | 0.25 (≈ 0.492 µM) | 4 (≈ 7.86 µM) | > 64
11 | CC(C)(O)Cn1c(=O)ccc2ncc(F)c(CCC34CCC(NCc5ccc6c(n5)NC(=O)CO6)(CC3)CO4)c21 | 8 (≈ 14.5 µM) | > 64 | 64 (≈ 116 µM) | 64 (≈ 116 µM) | > 64 | > 64
12 | O=c1ccc2ncc(F)c(CCC34CCC(NCc5cnc(-c6ccncc6)s5)(CC3)CO4)c2n1CCO | > 32 | > 32 | > 32 | > 32 | > 32 | > 32
13 | O=c1ccc2ncc(F)c(CCC34CCC(NCc5cnc(-c6ncccn6)s5)(CC3)CO4)c2n1CCO | 1 (≈ 1.86 µM) | > 16 | > 16 | 4 (≈ 7.45 µM) | > 16 | > 32
14 | O=C1COc2ccc(CNC34CCC(CCc5c(F)cnc6ccc(=O)n(CCO)c56)(CC3)OC4)nc2N1 | 0.063 (≈ 0.12 µM) | 2 (≈ 3.82 µM) | 0.5 (≈ 0.955 µM) | 0.5 (≈ 0.955 µM) | 2 (≈ 3.82 µM) | 8 (≈ 15.3 µM)
15 | CN(C)CCn1c(=O)ccc2ncc(F)c(CCC34CCC(NCc5ccc6c(n5)NC(=O)CO6)(CC3)CO4)c21 | 0.5 (≈ 0.908 µM) | 1 (≈ 1.82 µM) | 0.5 (≈ 0.908 µM) | 1 (≈ 1.82 µM) | 16 (≈ 29.1 µM) | 8 (≈ 14.5 µM)
16 | O=C1COc2ccc(CNC34CCC(CCc5c(F)cnc6ccc(=O)n(CCN7CCOCC7)c56)(CC3)OC4)nc2N1 | 1 (≈ 1.69 µM) | > 16 | 8 (≈ 13.5 µM) | 2 (≈ 3.37 µM) | 16 (≈ 27 µM) | > 16
17 | N#CCn1c(=O)ccc2ncc(F)c(CCC34CCC(NCc5ccc6c(n5)NC(=O)CO6)(CC3)CO4)c21 | 0.016 (≈ 0.0309 µM) | 1 (≈ 1.93 µM) | 0.25 (≈ 0.482 µM) | 0.25 (≈ 0.482 µM) | 2 (≈ 3.86 µM) | 4 (≈ 7.71 µM)
18 | O=C(NC12CCC(CCc3c(F)cnc4ccc(=O)n(CCO)c34)(CC1)OC2)c1cc2c(cn1)OCCC2 | 0.5 (≈ 0.957 µM) | > 32 | 8 (≈ 15.3 µM) | 1 (≈ 1.91 µM) | 16 (≈ 30.6 µM) | > 32
19 | O=c1ccc2ncc(F)c(CCC34CCC(NCc5ccc6nsnc6c5)(CC3)CO4)c2n1CCO | 0.125 (≈ 0.245 µM) | 32 (≈ 62.8 µM) | 4 (≈ 7.85 µM) | 1 (≈ 1.96 µM) | 8 (≈ 15.7 µM) | > 64
20 | O=C1COc2ccc(CNC34CCC(CCc5ccnc6ccc(=O)n(CCO)c56)(CC3)OC4)nc2N1 | 2 (≈ 3.96 µM) | 8 (≈ 15.8 µM) | 8 (≈ 15.8 µM) | 4 (≈ 7.91 µM) | 16 (≈ 31.6 µM) | 32 (≈ 63.3 µM)
21 | CN(C)C(=O)Cn1c(=O)ccc2ncc(F)c(CCC34CCC(NCc5ccc6c(n5)NC(=O)CO6)(CC3)CO4)c21 | 1 (≈ 1.77 µM) | 32 (≈ 56.7 µM) | 8 (≈ 14.2 µM) | 4 (≈ 7.08 µM) | 32 (≈ 56.7 µM) | 64 (≈ 113 µM)
